Reference: patent US11064658B2, “Method for inducing plants to increase their flavonoid compound content” (Industrial Technology Research Institute, priority 2018, dated 2021)

Columns and labels:
Type in all cases: in vivo
[1] = test system: Chrysanthemum morifolium; assay: Al ion stimulation for different lengths of time, hydroponic culture; flavonoid glycoside contents by HPLC; details: whole plants, AlCl3 70, 250, 350 μM, 48, 72, 96 hours, compared to control group, had a dose effect
Protocol: (§1) 1. MS liquid medium was prepared based on the formulation of Table 1 shown in the following. 2. Different amounts of AlCl3 solution were added to the MS liquid medium prepared above to respectively form MS liquid mediums with AlCl3 final concentrations of 0 μM (control group), 70 μM, 250 μM and 350 μM for ready for use. 3. Tissue culture seedlings of Chrysanthemum morifolium (young shoot of Chrysanthemum morifolium) were taken out from solid culture tubes. After that, the solid medium on the root of the plants was washed with water, and the whole plants were inserted into test tubes containing the MS liquid medium with different AlCl3 final concentration prepared above, and the roots of the plants were immersed in the liquid medium. Finally, the above-ground parts of the plants were covered with sealed bags to protect the cuticula on the surfaces of the plant leaves to prevent rapid evapotranspiration of water. 4. After being immersed for 48, 72 and 96 hours, the morphological changes of the plants were observed and the samples of whole plants were collected. Then, the collected samples were lyophilized. 5. After the lyophilization, extraction was performed on the whole plant of Chrysanthemum morifolium. […]

[2] = test system: Chrysanthemum morifolium; assay: Al ion stimulation at different concentrations for 72 hours, hydroponic culture; flavonoid glycoside contents by HPLC; details: whole plants, AlCl3 100, 150, 200, 250 μM, compared to control group
Protocol: as §1, with “above.” for “in the following.”, “100” for “70”, “150 μM, 200” for “250”, “250” for “350”, “for” for “for 48,”, “72” for “72 and 96”

[3] = test system: Chrysanthemum morifolium; assay: Al ion stimulation of flowering plants for 96 hours, soil culture; flavonoid contents of flowers; details: AlCl3 1.25 mM and 2.5 mM, compared to control group
Protocol: 1. AlCl3 solutions with concentrations of 1.25 mM and 2.5 mM were prepared, respectively. 2. The flowering plants of Chrysanthemum morifolium (adult of Chrysanthemum morifolium) cultured by soil culture together with the soil and flower pots where the plants were located, were immersed in the AlCl3 solutions prepared above. 3. After being immersed for 96 hours, the morphological changes of the plants were observed and the samples of flowers were collected and lyophilized. 4. After the lyophilization, extraction was performed on the flowers of Chrysanthemum morifolium. The extraction method used was water extraction, and the dried flowers and deionized water were mixed at a ratio of 1:20 (g/mL) (i.e., 1 g dry weight of flowers was added to 20 mL of deionized water) to form a mixture. Using a condensing heating system, the mixture was heated to boiling for 90 minutes to complete the extraction and obtain an extract solution. The plant residue in the extract solution was removed by filtration, and then the extract solution was further lyophilized to obtain an extract.

[4] = test system: Chrysanthemum morifolium; assay: Al ion stimulation alone or combined with ultraviolet irradiation, hydroponic culture; flavonoid glycoside contents by HPLC; details: whole plants, compared to control group
Protocol: 1. MS liquid medium was prepared based on the formulation of Table 1 shown above. 2. Different amounts of AlCl3 solution were added to the MS liquid medium prepared above to respectively form MS liquid mediums with AlCl3 final concentrations of 0 μM (control group) and 250 μM for ready for use. 3. Tissue culture seedlings of Chrysanthemum morifolium (young shoot of Chrysanthemum morifolium) were taken out from solid culture tubes. After that, the solid medium on the roots of the plants were washed with water, and the whole plants were inserted into test tubes containing the MS liquid medium with different AlCl3 final concentration prepared above, and the roots of the plant were immersed in the liquid medium. Finally, the above-ground parts of the plants were covered with sealed bags to protect the cuticula on the surfaces of the plant leaves to prevent rapid evapotranspiration of water. 4. […] The plants were then allowed to recover for 1 hour. After the recovery, the morphological changes of the plants were observed and samples of whole plants were collected. Then, the collected samples were lyophilized. 5. After the lyophilization, extraction was performed on the whole plant of Chrysanthemum morifolium. The extraction method used was water extraction, and the dried plant and deionized water were mixed at a ratio of 1:20 (g/mL) (i.e., 1 g dry weight of plant was added to 20 mL of deionized water) to form a mixture. Using a condensing heating system, the mixture was heated to boiling for 90 minutes to complete the extraction and obtain an extract solution. The plant residue in the extract solution was removed by filtration, and then the extract solution was further lyophilized to obtain an extract. 6. High-performance liquid chromatography was performed on the extract mentioned above to determine the contents of luteolin-7-O-β-D-glycoside and […] which belong to flavonoid compounds.

[5] = test system: Ixeris chinensis; assay: Al ion stimulation alone or combined with ultraviolet irradiation, hydroponic culture; total flavonoid content of flowers and pedicels; details: for total flavonoid content: flowers and pedicels, compared to control group
Protocol: 1. MS liquid medium was prepared according to the formulation of Table 1 shown above. 2. Different amounts of AlCl3 solution were added to the MS liquid medium prepared above to respectively form MS liquid mediums with AlCl3 final concentrations of 0 mM (control group) and 1.25 mM for ready for use. 3. […] chinensis plants were sampled from the field. Leaves and pedicels of the above-ground part and root of the under-ground part of the […] chinensis plant were wiped and wash with water and the root were allowed in a form of bare root. After that, the whole plant was inserted into a test tube containing the MS liquid medium with AlCl3 prepared above, and the root of the plant was immersed in the liquid medium. 4. At the 73th hour of the immersion, the plants were irradiated with ultraviolet B for 1 hour. The plants were then allowed to recover for 3 hour. After the recovery, the morphological changes of the plants were observed and samples of flowers and pedicels were collected. Then, the collected samples were lyophilized. 5. The collected flowers and pedicels of the fresh plant were extracted with 30% ethanol and subjected to total flavonoid content analysis.

[6] = test system: Chrysanthemum morifolium; assay: Al ion stimulation alone or combined with ultraviolet irradiation, solid medium culture; total flavonoid content; details: whole plant, compared to control group
Protocol: 1. Different amounts of AlCl3 were added to the formulation of Table 2 shown above to respectively form MS solid mediums with final concentration of 0 μM (control group) and 350 μM for ready for use. 2. A terminal bud of a tissue culture seedling of Chrysanthemum morifolium (young shoot of Chrysanthemum morifolium) was cut and inserted to a solid medium without addition of the stimulation ion. After the plant had grown roots, the root part of the plant having the root with a length of less than 0.5 cm was inserted to the solid medium prepared above to perform the solid medium culture. 4. On the 41st day of the culture, the plants were irradiated with ultraviolet B for 0, 1, 2 and 4 hours, respectively. The plants were then allowed to recover for 3 hours. After the recovery, the morphological changes of the plants were observed and samples of whole plants (plants stimulated by Al ions alone, plants irradiated with 1 hour of ultraviolet alone, and plants stimulated by Al ions and 1, 2, and 4 hours of ultraviolet irradiation were obtained) were collected. After that, the collected samples were lyophilized. 5. After the lyophilization, extraction was performed on the whole plant. […] Quantitative analysis of total flavonoids was performed on the extracts mentioned above.

[7] = test system: Chrysanthemum morifolium; assay: Cu ion stimulation alone or combined with ultraviolet irradiation, hydroponic culture; flavonoid glycoside contents by HPLC; details: whole plants, compared to control group
[8] = test system: Chrysanthemum morifolium; assay: Zn ion stimulation for 40 days, solid medium culture; flavonoid glycoside contents by HPLC; details: whole plants, Zn ion 15, 30, 45 mM, compared to control group (3 mM)
Protocol: 1. Different amounts of ZnSO4 were added to the formulation of Table 2 shown in the following to respectively form MS solid mediums with different Zn ion final concentration of 3 mM (control group), 15 mM, 30 mM and 45 mM for ready for use. 2. A terminal bud of a tissue culture seedling of Chrysanthemum morifolium (young shoot of Chrysanthemum morifolium) was cut and inserted to the solid medium prepared above (since a rooted plant was not easy to insert into solid medium, the experiment was performed in this way) to perform the solid medium culture. Since Zn is mainly absorbed by the roots of plants, the evaluation only could start after the plant had grown roots. The Zn element could be absorbed and utilized by the plant only after the plant had grown roots. Plants were allowed to absorb zinc during growth and development, thereby causing changes in physiological and compositional components in the plants. 3. After being cultured for 40 days, the morphological changes of the plants were observed and the samples of whole plants were collected. Then, the collected samples were lyophilized. 4. After the lyophilization, extraction was performed on the whole plant of Chrysanthemum morifolium. […]

[9] = AlCl3 250 μM plus ultraviolet B 1 hour at 97th hour, recovery 1 hour
[10] = CuSO4 250 μM plus ultraviolet B 1 hour at 97th hour, recovery 1 hour

[Cl][Al]([Cl])[Cl] [Al ions, AlCl3]
content of apigenin-7-O-β-D-glycoside [1]: significantly increased | content of luteolin-7-O-β-D-glycoside [1]: significantly increased | content of apigenin-7-O-β-D-glycoside [2]: significantly increased about twofold to threefold | content of luteolin-7-O-β-D-glycoside [2]: significantly increased about twofold to threefold | content of apigenin [3]: significantly increased | content of apigenin-7-O-β-D-glycoside [3]: significantly increased | content of luteolin-7-O-β-D-glycoside [3]: significantly increased | content of apigenin-7-O-β-D-glycoside [4, 9]: about 40 fold | content of luteolin-7-O-β-D-glycoside [4, 9]: about 40 fold | content of apigenin-7-O-β-D-glycoside ([4]; AlCl3 250 μM, Al ions alone): increased | content of luteolin-7-O-β-D-glycoside ([4]; AlCl3 250 μM, Al ions alone): increased | appearance of plants before and after the ultraviolet irradiation, under Al ion stimulation ([5]; AlCl3 1.25 mM, ultraviolet B 1 hour): no significant difference | total flavonoid content ([5]; AlCl3 1.25 mM plus ultraviolet B 1 hour at 73th hour, recovery 3 hour): about 3.5 fold | total flavonoid content ([5]; AlCl3 1.25 mM, Al ions alone): increased | total flavonoid content ([6]; AlCl3 350 μM plus ultraviolet B 1, 2, 4 hours on 41st day, recovery 3 hours): increased | total flavonoid content ([6]; AlCl3 350 μM, Al ions alone): increased

O=S(=O)([O-])[O-].[Cu+2] [Cu ions, CuSO4]
content of apigenin-7-O-β-D-glycoside [7, 10]: about 37 fold | content of luteolin-7-O-β-D-glycoside [7, 10]: about 37 fold | content of apigenin-7-O-β-D-glycoside ([7]; CuSO4 250 μM, Cu ions alone): increased | content of luteolin-7-O-β-D-glycoside ([7]; CuSO4 250 μM, Cu ions alone): increased

O=S(=O)([O-])[O-].[Zn+2] [Zn ions, ZnSO4]
content of apigenin-7-O-β-D-glycoside [8]: significantly increased about sevenfold to eightfold | content of luteolin-7-O-β-D-glycoside [8]: significantly increased about sevenfold to eightfold
